Assays:
human V1a receptor = biological target: T1, human V1a receptor (Homo sapiens, UniProt P37288); test: Cellular in vitro assay for vasopressin receptor activity (V1a, aequorin luminescence); format: cell-based; conditions: for IC50: CHO cell line with human V1a receptor, [Arg8]-vasopressin at EC50, values are for the prodrug as such, read-out: IC50 hV1a; for ratio IC50 hV2/hV1a: selectivity ratio hV2/hV1a
T1 construct: expressed in transfected cells; host or cells: CHO K1 (Chinese hamster ovary), also stably transfected with a modified aequorin
Protocol: (§1) B-1. Cellular In Vitro Assay for Determining Vasopressin Receptor Activity
(§2) The identification of agonists and antagonists of the V1a and V2 vasopressin receptors from humans, rats and dogs as well as the quantification of the activity of the compounds of the invention is carried out using recombinant cell lines. These cell lines originally derive from a hamster's ovary epithelial cell (Chinese Hamster Ovary, CHO K1, ATCC: American Type Culture Collection, Manassas, Va. 20108, USA). The test cell lines constitutively express the human, rat or dog V1a or V2 receptors. In case of the Gaq-coupled V1a receptors, cells are also stably transfected with a modified form of the calcium-sensitive photoproteins aequorin (human and rat V1a) or obelin (dog V1a), which, after reconstitution with the cofactor coelenterazine, emit light when there are increases in free calcium concentrations [Rizzuto R, Simpson A W, Brini M, Pozzan T, Nature 358, 325-327 (1992); Illarionov B A, Bondar V S, Illarionova V A, Vysotski E S, Gene 153 (2), 273-274 (1995)]. The resulting vasopressin receptor cells react to stimulation of the recombinantly expressed Via receptors by intracellular release of calcium ions, which can be quantified by the resulting photoprotein luminescence. The Gs-coupled V2 receptors are stably transfected into cell lines expressing the gene for firefly luciferase under control of a CRE-responsible promoter. Activation of V2 receptors induces the activation of the CRE-responsive promoter via cAMP increase, thereby inducing the expression of firefly luciferase. The light emitted by photoproteins of V1a cell lines as well as the light emitted by firefly luciferase of V2 cell lines corresponds to the activation or inhibition of the respective vasopressin receptor. The bioluminescence of the cell lines is detected using a suitable luminometer [Milligan G, Marshall F, Rees S, Trends in Pharmacological Sciences 17, 235-237 (1996)].
Vasopressin V1a Receptor Cell Lines:
On the day before the assay, the cells are plated out in culture medium (DMEM/F12, 2% FCS, 2 mM glutamine, 10 mM HEPES, 5 μg/ml coelenterazine) in 384-well microtiter plates and kept in a cell incubator (96% humidity, 5% v/v CO2, 37C). On the day of the assay, test compounds in various concentrations are placed for 10 minutes in the wells of the microtiter plate before the agonist [Arg^8]-vasopressin at EC50 concentration is added. The resulting light signal is measured immediately in a luminometer.
(§3) Table 1A below lists individual IC50 values for the compounds of the invention (including racemic mixtures as well as separated enantiomers) that were obtained from cell lines transfected with the human V1a or V2 receptor. This means these IC50 values are the values for the prodrug and not for the underlying respective drug as the prodrug is mainly stable under the assay conditions.

human V2 receptor = biological target: T2, human V2 receptor (Homo sapiens, UniProt P30518); test: Cellular in vitro assay for vasopressin receptor activity (V2, CRE-luciferase); format: cell-based; conditions: CHO cell line with human V2 receptor, [Arg8]-vasopressin at EC50; values are for the prodrug as such; read-out: IC50 hV2
T2 construct: expressed in transfected cells; host or cells: CHO K1 cells expressing firefly luciferase under a CRE-responsive promoter
Protocol: as §1, §2
Vasopressin V2 Receptor Cell Lines:
On the day before the assay, the cells are plated out in culture medium (DMEM/F12, 2% FCS, 2 mM glutamine, 10 mM HEPES) in 384-well microtiter plates and kept in a cell incubator (96% humidity, 5% v/v CO2, 37C). On the day of the assay, test compounds in various concentrations and the agonist [Arg^8]-vasopressin at EC50 concentration are added together to the wells, and plates are incubated for 3 hours in a cell incubator. Upon addition of the cell lysis reagent Triton™ and the substrate luciferin, luminescence of firefly luciferase is measured in a luminometer.
as §3

T1 sequence (P37288 whole entry): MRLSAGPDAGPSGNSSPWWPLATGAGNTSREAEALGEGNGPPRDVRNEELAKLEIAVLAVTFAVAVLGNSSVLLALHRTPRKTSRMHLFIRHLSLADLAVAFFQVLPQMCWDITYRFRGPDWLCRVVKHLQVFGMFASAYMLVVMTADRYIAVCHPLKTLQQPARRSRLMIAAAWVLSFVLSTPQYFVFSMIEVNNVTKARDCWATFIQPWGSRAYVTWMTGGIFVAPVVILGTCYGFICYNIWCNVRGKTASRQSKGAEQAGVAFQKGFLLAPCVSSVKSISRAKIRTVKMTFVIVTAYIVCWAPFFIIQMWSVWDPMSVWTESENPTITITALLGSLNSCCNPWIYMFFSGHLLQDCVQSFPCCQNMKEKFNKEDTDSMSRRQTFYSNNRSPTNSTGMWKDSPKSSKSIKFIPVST
T2 sequence (P30518 whole entry): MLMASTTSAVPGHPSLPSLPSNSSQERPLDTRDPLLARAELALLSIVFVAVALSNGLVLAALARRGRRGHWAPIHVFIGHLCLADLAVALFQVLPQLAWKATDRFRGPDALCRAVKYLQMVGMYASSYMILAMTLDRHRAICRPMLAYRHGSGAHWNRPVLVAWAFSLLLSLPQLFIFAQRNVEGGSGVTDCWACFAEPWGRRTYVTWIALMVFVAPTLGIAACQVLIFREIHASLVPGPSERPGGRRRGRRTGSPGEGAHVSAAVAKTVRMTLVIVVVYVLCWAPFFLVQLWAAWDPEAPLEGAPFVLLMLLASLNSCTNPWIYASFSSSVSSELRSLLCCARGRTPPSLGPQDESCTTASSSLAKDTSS

| SMILES | IC50 (human V1a receptor) [µM] | ratio IC50 hV2/hV1a (human V1a receptor; Phosphate) | IC50 (human V2 receptor) [µM] | ratio IC50 hV2/hV1a (human V1a receptor) |
| --- | --- | --- | --- | --- |
| NC(=O)c1nc(Cn2nc(-c3ccc(Cl)cc3)n(C[C@H](OP(=O)([O-])O)C(F)(F)F)c2=O)nn1-c1ccccc1C(F)(F)F.[Na+] [Example 14, Sodium (2S)-3-[1-({5-carbamoyl-1-[2-(trifluoromethyl)phenyl]-1H-1,2,4-triazol-3-yl}methyl)-3-(4-chlorophenyl)-5-oxo-1,5-dihydro-4H-1,2,4-triazol-4-yl]-1,1,1-trifluoropropan-2-yl Hydrogen Phosphate] | 0.019 | 1.0 | 0.0185 |  |
| NC(=O)c1nc(Cn2nc(-c3ccc(Cl)cc3)n(C[C@H](OP(=O)([O-])[O-])C(F)(F)F)c2=O)nn1-c1ccccc1C(F)(F)F.[Mg+2] [Example 15, Magnesium (2S)-3-[1-({5-carbamoyl-1-[2-(trifluoromethyl)phenyl]-1H-1,2,4-triazol-3-yl}methyl)-3-(4-chlorophenyl)-5-oxo-1,5-dihydro-4H-1,2,4-triazol-4-yl]-1,1,1-trifluoropropan-2-yl Phosphate] | 0.0195 |  | 0.021 | 1.1 |
| NC(=O)c1nc(Cn2nc(-c3ccc(Cl)cc3)n(C[C@H](OP(=O)([O-])[O-])C(F)(F)F)c2=O)nn1-c1ncccc1Cl.[Ca+2] [Example 23, Calcium (2S)-3-[1-{[5-carbamoyl-1-(3-chloropyridin-2-yl)-1H-1,2,4-triazol-3-yl]methyl}-3-(4-chlorophenyl)-5-oxo-1,5-dihydro-4H-1,2,4-triazol-4-yl]-1,1,1-trifluoropropan-2-yl Phosphate] | 0.027 |  | 0.0735 | 2.7 |
| NC(=O)c1nc(Cn2nc(-c3ccc(Cl)cc3)n(C[C@H](OP(=O)([O-])O)C(F)(F)F)c2=O)nn1-c1ncccc1C(F)(F)F.[K+] [Example 2, Potassium (2S)-3-[1-({5-carbamoyl-1-[3-(trifluoromethyl)pyridin-2-yl]-1H-1,2,4-triazol-3-yl}-methyl)-3-(4-chlorophenyl)-5-oxo-1,5-dihydro-4H-1,2,4-triazol-4-yl]-1,1,1-trifluoropropan-2-yl Hydrogen Phosphate] | 0.0395 | 15.7 | 0.62 |  |
| NC(=O)c1nc(Cn2nc(-c3ccc(Cl)cc3)n(C[C@H](OP(=O)([O-])O)C(F)(F)F)c2=O)nn1-c1ccccc1C(F)(F)F.[K+] [Example 11, Potassium (2S)-3-[1-({5-carbamoyl-1-[2-(trifluoromethyl)phenyl]-1H-1,2,4-triazol-3-yl}methyl)-3-(4-chlorophenyl)-5-oxo-1,5-dihydro-4H-1,2,4-triazol-4-yl]-1,1,1-trifluoropropan-2-yl Hydrogen Phosphate] | 0.0405 | 0.9 | 0.037 |  |
| NC(=O)c1nc(Cn2nc(-c3ccc(Cl)cc3)n(C[C@H](OP(=O)([O-])O)C(F)(F)F)c2=O)nn1-c1ncccc1Cl.[Na+] [Example 21, Sodium (2S)-3-[1-{[5-carbamoyl-1-(3-chloropyridin-2-yl)-1H-1,2,4-triazol-3-yl]methyl}-3-(4-chlorophenyl)-5-oxo-1,5-dihydro-4H-1,2,4-triazol-4-yl]-1,1,1-trifluoropropan-2-yl Hydrogen Phosphate] | 0.021 | 1.8 | 0.038 |  |
| NC(=O)c1nc(Cn2nc(-c3ccc(Cl)cc3)n(C[C@H](OP(=O)([O-])O)C(F)(F)F)c2=O)nn1-c1ncccc1Cl.[K+] [Example 19, Potassium (2S)-3-[1-{[5-carbamoyl-1-(3-chloropyridin-2-yl)-1H-1,2,4-triazol-3-yl]methyl}-3-(4-chlorophenyl)-5-oxo-1,5-dihydro-4H-1,2,4-triazol-4-yl]-1,1,1-trifluoropropan-2-yl Hydrogen Phosphate] | 0.024 | 2.1 | 0.051 |  |
| NC(=O)c1nc(Cn2nc(-c3ccc(Cl)cc3)n(C[C@H](OP(=O)([O-])O)C(F)(F)F)c2=O)nn1-c1ncccc1C(F)(F)F.[Na+] [Example 5, Sodium (2S)-3-[1-({5-carbamoyl-1-[3-(trifluoromethyl)pyridin-2-yl]-1H-1,2,4-triazol-3-yl}-methyl)-3-(4-chlorophenyl)-5-oxo-1,5-dihydro-4H-1,2,4-triazol-4-yl]-1,1,1-trifluoropropan-2-yl Hydrogen Phosphate] | 0.00505 | 16.8 | 0.085 |  |
| NC(=O)c1nc(Cn2nc(-c3ccc(Cl)cc3)n(C[C@H](OP(=O)([O-])[O-])C(F)(F)F)c2=O)nn1-c1ncccc1C(F)(F)F.[Ca+2] [Example 8, Calcium (2S)-3-[1-({5-carbamoyl-1-[3-(trifluoromethyl)pyridin-2-yl]-1H-1,2,4-triazol-3-yl}-methyl)-3-(4-chlorophenyl)-5-oxo-1,5-dihydro-4H-1,2,4-triazol-4-yl]-1,1,1-trifluoropropan-2-yl Phosphate] | 0.017 |  | 0.145 | 8.5 |
| NC(=O)c1nc(Cn2nc(-c3ccc(Cl)cc3)n(C[C@H](OP(=O)([O-])O)C(F)(F)F)c2=O)nn1-c1ccccc1C(F)(F)F.[K+] [Example 12, Potassium (2S)-3-[1-({5-carbamoyl-1-[2-(trifluoromethyl)phenyl]-1H-1,2,4-triazol-3-yl}methyl)-3-(4-chlorophenyl)-5-oxo-1,5-dihydro-4H-1,2,4-triazol-4-yl]-1,1,1-trifluoropropan-2-yl Hydrogen Phosphate] | 0.0165 | 1.5 | 0.024 |  |
| NC(=O)c1nc(Cn2nc(-c3ccc(Cl)cc3)n(C[C@H](OP(=O)([O-])O)C(F)(F)F)c2=O)nn1-c1ncccc1C(F)(F)F.[K+] [Example 3, Potassium (2S)-3-[1-({5-carbamoyl-1-[3-(trifluoromethyl)pyridin-2-yl]-1H-1,2,4-triazol-3-yl}-methyl)-3-(4-chlorophenyl)-5-oxo-1,5-dihydro-4H-1,2,4-triazol-4-yl]-1,1,1-trifluoropropan-2-yl Hydrogen Phosphate] | 0.00615 | 20.0 | 0.123 |  |
| NC(=O)c1nc(Cn2nc(-c3ccc(Cl)cc3)n(C[C@H](OP(=O)([O-])[O-])C(F)(F)F)c2=O)nn1-c1ccccc1C(F)(F)F.[Ca+2] [Example 16, Calcium (2S)-3-[1-({5-carbamoyl-1-[2-(trifluoromethyl)phenyl]-1H-1,2,4-triazol-3-yl}methyl)-3-(4-chlorophenyl)-5-oxo-1,5-dihydro-4H-1,2,4-triazol-4-yl]-1,1,1-trifluoropropan-2-yl Phosphate] | 0.029 |  | 0.0305 | 1.1 |
| NC(=O)c1nc(Cn2nc(-c3ccc(Cl)cc3)n(C[C@H](OP(=O)([O-])O)C(F)(F)F)c2=O)nn1-c1ncccc1Cl.[K+] [Example 18, Potassium (2S)-3-[1-{[5-carbamoyl-1-(3-chloropyridin-2-yl)-1H-1,2,4-triazol-3-yl]methyl}-3-(4-chlorophenyl)-5-oxo-1,5-dihydro-4H-1,2,4-triazol-4-yl]-1,1,1-trifluoropropan-2-yl Hydrogen Phosphate] | 0.0335 | 2.5 | 0.084 |  |
| NC(=O)c1nc(Cn2nc(-c3ccc(Cl)cc3)n(C[C@H](OP(=O)([O-])O)C(F)(F)F)c2=O)nn1-c1ccccc1C(F)(F)F.[Na+] [Example 13, Sodium (2S)-3-[1-({5-carbamoyl-1-[2-(trifluoromethyl)phenyl]-1H-1,2,4-triazol-3-yl}methyl)-3-(4-chlorophenyl)-5-oxo-1,5-dihydro-4H-1,2,4-triazol-4-yl]-1,1,1-trifluoropropan-2-yl Hydrogen Phosphate] | 0.019 | 1.4 | 0.0265 |  |

Source: patent US11298367B2, “Prodrugs of substituted triazole derivatives and uses thereof” (Bayer Aktiengesellschaft, priority 2017, dated 2022)
